Laboratory results from the supplement of paper PMC10307832.

Columns and labels:
Test in all cases: relative viability (nuclei count vs DMSO), 5 days (fraction); higher = more cells survive
Idelalisib + Dasatinib = compound: CC[C@H](Nc1ncnc2[nH]cnc12)c1nc2cccc(F)c2c(=O)n1-c1ccccc1 [Idelalisib] + Cc1nc(Nc2ncc(C(=O)Nc3c(C)cccc3Cl)s2)cc(N2CCN(CCO)CC2)n1 [Dasatinib] (partner 0.075 µM)
How it was run: (§1)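 Lung cancer cell lines in 1536-well plates got either a single drug or a fixed anchor-drug dose together with five library-drug doses (not always all listed) in √10 steps, by pin tool, on the day after seeding. Nuclei were counted after 5 days, and relative viability is the treated-to-vehicle ratio of nuclei counts. Values are medians of duplicate plates.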

Idelalisib + Vorinostat = compound: CC[C@H](Nc1ncnc2[nH]cnc12)c1nc2cccc(F)c2c(=O)n1-c1ccccc1 [Idelalisib] + O=C(CCCCCCC(=O)Nc1ccccc1)NO [Vorinostat] (partner 1 µM)
How it was run: as §1

Pemetrexed + Pictilisib = compound: Nc1nc2[nH]cc(CCc3ccc(C(=O)N[C@@H](CCC(=O)O)C(=O)O)cc3)c2c(=O)[nH]1 [Pemetrexed] + CS(=O)(=O)N1CCN(Cc2cc3nc(-c4cccc5[nH]ncc45)nc(N4CCOCC4)c3s2)CC1 [Pictilisib] (partner 1 µM)
How it was run: as §1

Pemetrexed + Dasatinib = compound: Nc1nc2[nH]cc(CCc3ccc(C(=O)N[C@@H](CCC(=O)O)C(=O)O)cc3)c2c(=O)[nH]1 [Pemetrexed] + Cc1nc(Nc2ncc(C(=O)Nc3c(C)cccc3Cl)s2)cc(N2CCN(CCO)CC2)n1 [Dasatinib] (partner 0.075 µM)
How it was run: as §1

| Cell Line | relative viability (Idelalisib + Dasatinib; first compound 0.04 µM) | relative viability (Idelalisib + Dasatinib; first compound 0.1265 µM) | relative viability (Idelalisib + Dasatinib; first compound 0.4 µM) | relative viability (Idelalisib + Dasatinib; first compound 1.265 µM) | relative viability (Idelalisib + Dasatinib; first compound 4 µM) | relative viability (Idelalisib + Vorinostat; first compound 0.04 µM) | relative viability (Idelalisib + Vorinostat; first compound 0.1265 µM) | relative viability (Idelalisib + Vorinostat; first compound 1.265 µM) | relative viability (Idelalisib + Vorinostat; first compound 4 µM) | relative viability (Pemetrexed + Pictilisib; first compound 0.002 µM) | relative viability (Pemetrexed + Pictilisib; first compound 0.006325 µM) | relative viability (Pemetrexed + Pictilisib; first compound 0.02 µM) | relative viability (Pemetrexed + Pictilisib; first compound 0.06325 µM) | relative viability (Pemetrexed + Pictilisib; first compound 0.2 µM) | relative viability (Pemetrexed + Dasatinib; first compound 0.002 µM) | relative viability (Pemetrexed + Dasatinib; first compound 0.006325 µM) | relative viability (Pemetrexed + Dasatinib; first compound 0.02 µM) | relative viability (Pemetrexed + Dasatinib; first compound 0.06325 µM) | relative viability (Pemetrexed + Dasatinib; first compound 0.2 µM) | relative viability (Idelalisib + Vorinostat; first compound 0.4 µM) |
| --- | --- | --- | --- | --- | --- | --- | --- | --- | --- | --- | --- | --- | --- | --- | --- | --- | --- | --- | --- | --- |
| NCI-H441 | 0.681 | 0.687 | 0.585 | 0.639 | 0.467 | 0.851 | 0.908 | 0.737 | 0.758 | 0.46 | 0.463 | 0.595 | 0.322 | 0.268 | 0.429 | 0.573 | 0.556 | 0.392 | 0.273 |  |
| NCI-H520 | 0.201 | 0.158 | 0.126 | 0.209 | 0.147 | 0.768 | 0.708 | 0.722 | 0.488 | 0.247 | 0.254 | 0.349 | 0.322 | 0.275 | 0.235 | 0.224 | 0.208 | 0.203 | 0.235 | 0.669 |
| CAL-12T | 0.315 | 0.478 | 0.273 | 0.375 | 0.305 | 0.831 | 0.689 | 0.704 | 0.648 | 0.426 | 0.484 | 0.451 | 0.416 | 0.389 | 0.327 | 0.322 | 0.515 | 0.43 | 0.5 | 0.65 |
| HCC-827 | 0.31 | 0.318 | 0.357 | 0.285 | 0.177 | 0.957 | 0.664 | 0.848 | 0.969 | 0.74 | 0.973 | 0.929 | 0.95 | 0.664 | 0.369 | 0.287 | 0.349 | 0.362 | 0.339 | 0.897 |
| LC-2-ad | 0.583 | 0.48 | 0.424 | 0.626 | 0.519 | 0.798 | 0.702 | 0.791 | 0.703 | 0.402 | 0.306 | 0.428 | 0.211 | 0.123 | 0.454 | 0.525 | 0.347 | 0.208 | 0.222 | 0.683 |
| NCI-H2170 | 0.661 | 0.473 | 0.536 | 0.383 | 0.554 | 0.732 | 0.805 | 0.716 | 0.669 | 0.303 | 0.307 | 0.242 | 0.305 | 0.276 | 0.581 | 0.631 | 0.612 | 0.505 | 0.575 | 0.761 |
| SW 1573 | 0.508 | 0.475 | 0.503 | 0.324 | 0.376 | 0.907 | 0.629 | 0.556 | 0.49 | 0.421 | 0.475 | 0.488 | 0.533 | 0.463 | 0.524 | 0.448 | 0.735 | 0.593 | 0.42 | 0.7 |
| SK-MES-1 | 0.33 | 0.306 | 0.208 | 0.199 | 0.187 | 1.19 | 1.06 | 0.395 | 1.04 | 0.34 | 0.327 | 0.349 | 0.322 | 0.401 | 0.411 | 0.367 | 0.516 | 0.328 | 0.339 | 0.974 |
| NCI-H1648 |  |  |  |  |  | 0.395 | 0.483 | 0.224 | 0.31 |  |  |  |  |  |  |  |  |  |  | 0.357 |
| NCI-H1793 | 0.379 | 0.372 | 0.294 | 0.374 | 0.323 | 0.764 | 0.699 | 0.75 | 0.582 | 0.303 | 0.299 | 0.341 | 0.247 | 0.311 | 0.312 | 0.294 | 0.46 | 0.375 | 0.412 |  |
| NCI-H1299 |  |  |  |  |  |  |  |  |  | 0.86 | 0.724 | 1.06 | 0.762 | 0.536 |  |  |  |  |  |  |
| LCLC-97TM1 | 0.938 | 0.846 | 0.807 | 0.946 | 0.88 | 0.802 | 0.871 | 0.868 | 0.685 | 0.163 | 0.159 | 0.173 | 0.133 | 0.115 | 0.743 | 0.892 | 0.967 | 0.797 | 0.588 | 0.446 |
| NCI-H1915 | 0.425 | 0.316 | 0.284 | 0.357 | 0.3 | 0.567 | 0.534 | 0.503 | 0.448 | 0.786 | 0.933 | 1.13 | 0.929 | 0.957 | 0.236 | 0.313 | 0.313 | 0.306 | 0.319 | 0.498 |
| NCI-H661 | 1.1 | 0.969 | 0.673 | 1.08 | 0.673 | 0.81 | 0.779 | 0.876 | 0.814 | 0.487 | 0.402 | 0.438 |  | 0.424 | 0.882 | 0.84 | 0.958 | 0.945 | 0.827 | 0.828 |
| NCI-H2405 | 0.25 | 0.201 | 0.199 | 0.245 | 0.217 | 1.2 | 1.05 | 1.04 | 1.06 | 0.455 | 0.436 | 0.507 | 0.474 | 0.355 | 0.182 | 0.228 | 0.228 | 0.205 | 0.209 | 0.908 |
| NCI-H2347 | 0.416 | 0.346 | 0.25 | 0.292 | 0.325 | 0.639 | 0.572 | 0.624 | 0.403 | 0.392 | 0.545 | 0.601 | 0.525 | 0.606 | 0.269 | 0.169 | 0.351 | 0.319 | 0.272 | 0.511 |
| NCI-H1651 | 0.305 | 0.314 | 0.318 | 0.518 | 0.332 | 0.577 | 0.416 | 0.617 | 0.593 | 0.627 | 0.49 | 0.658 | 0.554 | 0.556 | 0.388 | 0.357 | 0.439 | 0.346 | 0.428 | 0.552 |
